Assay results from ChEMBL document CHEMBL1147027, “The role of fluorine substitution in the structure-activity relationships (SAR) of classical cannabinoids” (2007).

Tests used:
[1] = target: Cannabinoid receptor 1 (Homo sapiens) (UniProt P21554); experiment: Binding affinity to CB1 receptor
[2] = target: Cannabinoid receptor 2 (Homo sapiens) (UniProt P34972); experiment: Binding affinity to CB2 receptor
Mus musculus [3] = organism: Mus musculus; experiment: Effect on behavioral activity in mouse assessed as tail flick by tetrad test; type: functional
Mus musculus [4] = organism: Mus musculus; experiment: Effect on behavioral activity in mouse assessed as rectal temperature by tetrad test; type: functional
Mus musculus [5] = organism: Mus musculus; experiment: Effect on behavioral activity in mouse assessed as spontaneous activity by tetrad test; type: functional
Mus musculus [6] = experiment: Effect on behavioral activity in intrathecally dosed mouse assessed as tail flick by tetrad test; type: functional
Mus musculus [7] = experiment: Effect on behavioral activity in intrathecally dosed mouse assessed as tail flick by tetrad test at 100 mg/kg; type: functional
Mus musculus [8] = experiment: Effect on behavioral activity in mouse assessed as tail flick by tetrad test at 30 mg/kg; type: functional
Mus musculus [9] = experiment: Effect on behavioral activity in mouse assessed as spontaneous activity by tetrad test at 30 mg/kg; type: functional
Mus musculus [10] = experiment: Effect on behavioral activity in mouse assessed as rectal temperature by tetrad test at 30 mg/kg; type: functional

Cannabinoid receptor 2 (Homo sapiens), sequence (P34972 whole entry): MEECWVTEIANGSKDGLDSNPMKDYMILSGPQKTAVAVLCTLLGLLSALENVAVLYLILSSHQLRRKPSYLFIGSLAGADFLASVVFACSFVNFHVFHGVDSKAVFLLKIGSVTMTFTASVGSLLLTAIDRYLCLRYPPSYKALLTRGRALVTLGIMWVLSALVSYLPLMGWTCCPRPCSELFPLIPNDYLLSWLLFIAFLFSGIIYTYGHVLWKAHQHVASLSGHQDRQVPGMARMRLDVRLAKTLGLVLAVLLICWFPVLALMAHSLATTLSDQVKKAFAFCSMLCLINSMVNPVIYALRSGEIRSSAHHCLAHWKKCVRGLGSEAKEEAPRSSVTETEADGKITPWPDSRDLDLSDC
Cannabinoid receptor 1 (Homo sapiens), sequence (P21554 whole entry): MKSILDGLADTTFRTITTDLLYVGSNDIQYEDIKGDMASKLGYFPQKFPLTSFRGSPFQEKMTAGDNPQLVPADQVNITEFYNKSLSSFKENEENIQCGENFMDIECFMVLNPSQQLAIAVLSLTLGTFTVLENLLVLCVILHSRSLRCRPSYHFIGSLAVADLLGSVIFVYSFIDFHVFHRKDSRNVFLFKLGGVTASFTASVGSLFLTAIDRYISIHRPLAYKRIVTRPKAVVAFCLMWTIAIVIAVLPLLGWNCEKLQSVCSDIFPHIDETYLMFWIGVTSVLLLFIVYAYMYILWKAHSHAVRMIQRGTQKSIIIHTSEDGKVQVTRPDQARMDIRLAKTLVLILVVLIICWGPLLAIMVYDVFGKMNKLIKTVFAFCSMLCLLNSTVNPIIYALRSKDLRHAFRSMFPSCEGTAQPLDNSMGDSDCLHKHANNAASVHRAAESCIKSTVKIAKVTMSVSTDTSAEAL

`CCCCC/C=C/c1cc(F)c2c(c1)OC(C)(C)[C@@H]1CC=C(C)C[C@@H]21` gave an Activity [1] of 285 nM and an Activity [2] of 40 nM.
`CCCCCc1cc(O)c2c(c1)OC(C)(C)[C@@H]1CCC(C)=C[C@@H]21` [DRONABINOL] was tested, and the ED50 (Mus musculus [3]) was 1.4 mg/kg, the ED50 (Mus musculus [4]) was 1.4 mg/kg and the ED50 (Mus musculus [5]) was 1 mg/kg. It also gave an Activity (Mus musculus [6]) of 29 µg.
`CCCCCCCc1cc(F)c2c(c1)OC(C)(C)[C@@H]1CC=C(C)C[C@@H]21` gave an Activity [1] of 1560 nM, an ED50 (Mus musculus [3]) of 21.5 mg/kg and an ED50 (Mus musculus [4]) of 6.9 mg/kg. The Activity [2] was 1510 nM, the ED50 (Mus musculus [5]) was 31.1 mg/kg and the Activity (Mus musculus [7]) was 36%.
With `CCCCC/C=C/c1cc(O)c2c(c1)OC(C)(C)[C@@H]1CC=C(C)C[C@@H]21` the Activity [1] was 0.86 nM, the ED50 (Mus musculus [3]) was 0.09 mg/kg and the ED50 (Mus musculus [4]) was 0.13 mg/kg. For the same compound, the ED50 (Mus musculus [5]) was 0.09 mg/kg.
Compound `CCCCCC#Cc1cc(F)c2c(c1)OC(C)(C)[C@@H]1CC=C(C)C[C@@H]21` has an Activity (Mus musculus [8]) of 4%, an Activity [1] greater than 10000 nM and an Activity [2] greater than 4550 nM. For the same compound, the Activity (Mus musculus [9]) was 8%, the Activity (Mus musculus [10]) was -2.2 °C and the Activity (Mus musculus [6]) was 156.9 µg.
`CCCCCC#Cc1cc(O)c2c(c1)OC(C)(C)[C@@H]1CC=C(C)C[C@@H]21` was tested, and the Activity [1] was 36 nM, the ED50 (Mus musculus [3]) was 3.24 mg/kg and the ED50 (Mus musculus [4]) was 2.96 mg/kg. The ED50 (Mus musculus [5]) was 3.68 mg/kg.
